In paper PMC7617869, “Molecular glues that inhibit deubiquitylase activity and inflammatory signaling” (Nature Structural & Molecular Biology, 2025):
“And” between values parts separate entries of the source, which are not always exact repeats. Equal entries are not always repeated.

Columns and labels:
BRISC = target: T1, BRISC (Homo sapiens, UniProt P46736+Q15018+Q9NXR7); experiment: BRISC DUB activity assay (IQF K63-linked diubiquitin); assay type: biochemical; details: for Mean: Fig. 1d; for Normalised V0: replicate columns
T1 construct: made in house; host or cells: Spodoptera frugiperda (Sf9) insect cells, MultiBac
Experimental: IQF assays were performed in DUB reaction buffer containing 50 mM HEPES–NaOH pH 7.0, 100 mM NaCl, 0.1 mg ml^−1 BSA, 1 mM DTT and 0.03% v/v Brij-35. […] The final concentration of BRISC WT, all BRISC mutants, HsBRISCΔLoop, MmBRISC and DrBRISCΔNΔC was 1 nM. Other enzymes were tested at the following concentrations: 5 nM ARISC (FL), 10 nM CfBRISCΔNΔC, 250 nM AMSH* (ref. [43]), 500 nM USP2 and 1 μM trypsin (Sigma, 9002-07-7). For Michaelis–Menten experiments, 1 nM BRISC with 0–1 μM IQF K63-linked diubiquitin substrate was used. Michaelis–Menten analyses and Lineweaver–Burk plots were calculated using GraphPad Prism (version 9.0).
To assess enzymatic activity, BRISC complexes were diluted to concentrations between 1 nM and 50 nM. […] Then, 20-μl enzyme reactions were carried out in 384-well black flat-bottom low-flange plates (Corning, 35373). DUB activity was measured using IQF K63-linked diubiquitin (LifeSensors, DU6303) at 50 nM. Cleaved diubiquitin was monitored by measuring fluorescence intensity (excitation, 544 nm; emission, 575 nm; dichroic mirror, 560 nm). Fluorescence intensity was measured every minute for 30 min at 30 °C. Fluorescence intensity units were plotted against time to generate a linear reaction progress curve, where the initial velocity (V0) corresponds to the gradient of the curve (typically achieved within 15 min). IC50 values were calculated using the GraphPad Prism (version 9.0) built-in dose–response equation for inhibitor concentration versus response (variable slope).

BRISC (FL) = target: T2, BRISC (FL) (Homo sapiens, UniProt P46736+Q15018+Q9NXR7); experiment: In-gel deubiquitylation assay, TAMRA-labeled K63-tetraubiquitin, BRISC; assay type: biochemical; details: 10 μM or 100 μM inhibitor
T2 construct: full-length BRISC (FL), ARISC (FL); made in house; host or cells: Spodoptera frugiperda Sf9 insect cells (MultiBac)
Experimental: The inhibitor capzimin (Merck) was diluted in 1 mM DTT and incubated for 30 min at room temperature to reduce disulfide bonds required for inhibitor activity. […] DUBs were incubated with 750 nM TAMRA-labeled K63-tetraubiquitin (LifeSensors, SI6304T) for 10 min at 30 °C. Reactions were quenched by adding 2.5 μl of 4× SDS–PAGE loading dye (240 mM Tris-HCl pH 6.8, 40% v/v glycerol, 8% w/v SDS, 0.04% w/v bromophenol blue and 5% v/v β-mercaptoethanol). The samples were resolved on 4–12% NuPAGE Bis–Tris gels (Thermo Fisher Scientific). Gels were scanned using an iBright FL 1500 (Thermo Fisher Scientific) (excitation, 515–545 nm; emission, 568–617 nm; exposure, 500 ms).

BRISC–SHMT2 interaction = target: T3, BRISC–SHMT2 interaction (Homo sapiens, UniProt P46736+Q15018+Q9NXR7); experiment: Dianthus spectral shift binding assay (BRISC–SHMT2); details: labelled BRISC preincubated with 100 μM compound
T3 construct: His (tag of the complex); made in house
Experimental: Site-specific labeling of His-tagged BRISC was performed using a RED-Tris-NTA second-generation labeling kit (NanoTemper Technologies) in buffer containing 25 mM HEPES pH 7.5, 150 mM NaCl, 1 mM DTT and 0.005% Tween-20. First, 100 nM His–BRISC was incubated with 25 nM RED-Tris-NTA dye and prepared according to the Nanotemper protocol. […] The reactions were carried out in 384-well Dianthus microplates (Nanotemper Technologies) with a 20-μl reaction volume. The measurements were performed using autoexcitation on a Dianthus NT.23 instrument at 25 °C using DI.Control software (version 2.1.1; Nanotemper Technologies). Data were analyzed using DI.Screening Analysis software (version 2.1.1; Nanotemper Technologies) and plotted in GraphPad Prism (version 10.1.0). KD values were determined using a GraphPad Prism built-in equation for total binding (one site).

- Mean (BRISC; log[compound (μM)] 0.1931): 1.0068
- Mean (BRISC; log[compound (μM)] 0.4942): 1.0306
- Mean (BRISC; log[compound (μM)] 0.7959): 0.9990
- Mean (BRISC; log[compound (μM)] 1.0969): 1.0116
- Mean (BRISC; log[compound (μM)] 1.3979): 0.9713
- Mean (BRISC; log[compound (μM)] 1.6990): 1.1388
- Mean (BRISC; log[compound (μM)] 2.0000): 1.0728
- Mean (BRISC; log[compound (μM)] 2.3010): 1.1033
- Mean (BRISC; log[compound (μM)] -0.1079): 1.1343
- Mean (BRISC; log[compound (μM)] -0.4089): 1.1217
- Mean (BRISC; log[compound (μM)] -0.7212): 1.1333
- Mean (BRISC; log[compound (μM)] -1.7212): 1.0000
- inhibition of BRISC DUB activity (in words) (BRISC; IQF diubiquitin assay): did not inhibit
- Normalised V0 (BRISC; [Inhibitor] 0.013 μM): 0.9578 and 1.102 and 0.7959 and 1.072
- Normalised V0 (BRISC; [Inhibitor] 0.02 μM): 0.8824 and 1.105
- Normalised V0 (BRISC; [Inhibitor] 0.0399999 μM): 1.048 and 1.358
- Normalised V0 (BRISC; [Inhibitor] 0.0599997 μM): 0.9169 and 1.23
- Normalised V0 (BRISC; [Inhibitor] 0.0799994 μM): 1.0394 and 1.173
- Normalised V0 (BRISC; [Inhibitor] 0.119998 μM): 0.856 and 0.7489
- Normalised V0 (BRISC; [Inhibitor] 0.199996 μM): 0.9661 and 1.115
- Normalised V0 (BRISC; [Inhibitor] 0.499975 μM): 0.9387 and 1.144
- Normalised V0 (BRISC; [Inhibitor] 0.799936 μM): 0.8532 and 1.098
- Normalised V0 (BRISC; [Inhibitor] 1.25984 μM): 0.9637 and 1.032
- Normalised V0 (BRISC; [Inhibitor] 1.9996 μM): 0.7701 and 1.137
- Normalised V0 (BRISC; [Inhibitor] 3.159 μM): 0.887 and 1.055
- Normalised V0 (BRISC; [Inhibitor] 5.19739 μM): 0.7796 and 1.219
- Normalised V0 (BRISC; [Inhibitor] 7.99364 μM): 0.912 and 1.161
- Normalised V0 (BRISC; [Inhibitor] 12.7839 μM): 0.972 and 1.143
- Normalised V0 (BRISC; [Inhibitor] 19.96 μM): 0.9311 and 1.165
- Normalised V0 (BRISC; [Inhibitor] 31.4999 μM): 0.8747 and 1.168
- Normalised V0 (BRISC; [Inhibitor] 50.147 μM): 0.908 and 1.016
- Normalised V0 (BRISC; [Inhibitor] 79.7601 μM): 0.7753 and 1.257
- Normalised V0 (BRISC; [Inhibitor] 125.99 μM): 0.9194 and 0.97
- Normalised V0 (BRISC; [Inhibitor] 199.922 μM): 0.8606 and 0.9293
- inhibition of BRISC cleavage of K63-linked tetraubiquitin (BRISC (FL)): did not inhibit
- Ratio 670 nm/650 nm (BRISC–SHMT2 interaction; SHMT2 0.00140381 μM): 1.077 and 1.081 and 1.064
- Ratio 670 nm/650 nm (BRISC–SHMT2 interaction; SHMT2 0.00280762 μM): 1.075 and 1.068 and 1.082
- Ratio 670 nm/650 nm (BRISC–SHMT2 interaction; SHMT2 0.00561523 μM): 1.073 and 1.081 and 1.075
- Ratio 670 nm/650 nm (BRISC–SHMT2 interaction; SHMT2 0.0112305 μM): 1.064 and 1.071 and 1.065
- Ratio 670 nm/650 nm (BRISC–SHMT2 interaction; SHMT2 0.0224609 μM): 1.049 and 1.052
- Ratio 670 nm/650 nm (BRISC–SHMT2 interaction; SHMT2 0.0449219 μM): 1.026 and 1.035 and 1.037
- Ratio 670 nm/650 nm (BRISC–SHMT2 interaction; SHMT2 0.0898438 μM): 1.012 and 1.013 and 1.006
- Ratio 670 nm/650 nm (BRISC–SHMT2 interaction; SHMT2 0.179688 μM): 0.993 and 0.976 and 0.943
- Ratio 670 nm/650 nm (BRISC–SHMT2 interaction; SHMT2 0.359375 μM): 0.948 and 0.935 and 0.925
- Ratio 670 nm/650 nm (BRISC–SHMT2 interaction; SHMT2 0.71875 μM): 0.903 and 0.887 and 0.836
- Ratio 670 nm/650 nm (BRISC–SHMT2 interaction; SHMT2 1.4375 μM): 0.863 and 0.84 and 0.841
- Ratio 670 nm/650 nm (BRISC–SHMT2 interaction; SHMT2 2.875 μM): 0.823 and 0.805 and 0.806
- Ratio 670 nm/650 nm (BRISC–SHMT2 interaction; SHMT2 5.75 μM): 0.792 and 0.756 and 0.785
- Ratio 670 nm/650 nm (BRISC–SHMT2 interaction; SHMT2 11.5 μM): 0.776 and 0.777 and 0.775
- Ratio 670 nm/650 nm (BRISC–SHMT2 interaction; SHMT2 23 μM): 0.77 and 0.773 and 0.777
- Ratio 670 nm/650 nm (BRISC–SHMT2 interaction; SHMT2 46 μM): 0.768 and 0.78 and 0.777
SMILES: O=C(NC1CCN(C(=O)c2c(Cl)cccc2Cl)CC1)c1n[nH]cc1NC(=O)c1c(Cl)cccc1Cl [AP-5-144]
